# Paper PMC4075989 (Biochemistry, 2014)
# Where a SMILES comes first, the peptide text is derived from it. [ ]: non-standard residue; d: D form. 2Nal = N[C@@H](Cc1ccc2ccccc2c1)C(=O)O
# What was measured:
# Serum stability test = format: in vitro ADME; settings: human, 25% human serum (supernatant after centrifugation)
# [1] = tested on: glucocorticoid receptor (C638G)-GFP fusion (GR-GFP) in HeLa cells; experiment: GR-GFP translocation assay
# [2] = tested on: HEK293, MCF-7, A549, H1650, and H1299; experiment: MTT cytotoxicity assay; format: cell-based, human; settings: triplicates
# mammalian cells = settings: cited from earlier work
smiles,measurement,setting,value
N=C(N)NCCC[C@H](NC(=O)[C@H](CCCNC(=N)N)NC(=O)[C@H](CCCNC(=N)N)NC(=O)[C@H](CCC(N)=O)NC(=O)[C@H](CCCNC(=N)N)NC(=O)[C@H](CCCNC(=N)N)NC(=O)[C@H](CCCCN)NC(=O)[C@H](CCCCN)NC(=O)[C@H](CCCNC(=N)N)NC(=O)CNC(=O)[C@@H](N)Cc1ccc(O)cc1)C(=O)O [Tat],half-life,Serum stability test,~30 min
N=C(N)NCCC[C@H](NC(=O)[C@H](CCCNC(=N)N)NC(=O)[C@H](CCCNC(=N)N)NC(=O)[C@H](CCCNC(=N)N)NC(=O)[C@H](CCCNC(=N)N)NC(=O)[C@H](CCCNC(=N)N)NC(=O)[C@H](CCCNC(=N)N)NC(=O)[C@H](CCCNC(=N)N)NC(=O)[C@@H](N)CCCNC(=N)N)C(=O)O [R9],half-life,Serum stability test,~30 min
"C[C@@H]1C[C@H]2[C@@H]3CCC4=CC(=O)C=C[C@]4(C)[C@@]3(F)[C@@H](O)C[C@]2(C)[C@@]1(O)C(=O)CO [Dex, dexamethasone]",effect of Rab5(Q79L) overexpression on TR,[1],no effect
N=C(N)NCCC[C@@H]1NC(=O)[C@H](CCCNC(=N)N)NC(=O)[C@H](CCCNC(=N)N)NC(=O)[C@H](Cc2ccc3ccccc3c2)NC(=O)[C@H](Cc2ccccc2)NC(=O)[C@H](CCC(N)=O)NC(=O)[C@H](CCCNC(=N)N)NC1=O [cFΦR4] (cyclo(F[2Nal]RRRRQ)),"remaining at 24 h, 5 µM",Serum stability test,> 70%
same,growth inhibition after 72 h,"[2]; 50 μM, 72 h",up to 20%
same,growth inhibition after 24 or 48 h,"[2]; up to 50 μM, any of five human cell lines",no significant growth inhibition
same,efficiency of entering the cytoplasm and nucleus relative to nonaarginine (R9),mammalian cells,2–5 fold
